Measurements: PubChem BioAssay (NCI)
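Grown in 96-well plates, cells were treated for 48 hours with each compound at five concentrations. Insufficient inhibition: endpoint recorded as highest concentration tested. GI50 is the concentration that inhibits growth by half. TGI denotes the concentration required for complete inhibition of growth.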

Key:
Experiment in all cases: NCI tumour cell line growth inhibition, 48 h
786-0 renal = system: 786-0 renal
A498 renal = system: A498 renal
A549 NSCLC = system: A549 NSCLC
ACHN renal = system: ACHN renal
BT-549 breast = system: BT-549 breast
CAKI-1 renal = system: CAKI-1 renal
CCRF-CEM leukemia = system: CCRF-CEM leukemia
COLO 205 colon = system: COLO 205 colon
DU-145 prostate = system: DU-145 prostate
EKVX NSCLC = system: EKVX NSCLC
HCC-2998 colon = system: HCC-2998 colon
HCT-116 colon = system: HCT-116 colon
HCT-15 colon = system: HCT-15 colon
HL-60(TB) leukemia = system: HL-60(TB) leukemia
HOP-62 NSCLC = system: HOP-62 NSCLC
HOP-92 NSCLC = system: HOP-92 NSCLC
HS 578T breast = system: HS 578T breast
HT29 colon = system: HT29 colon
IGROV1 ovarian = system: IGROV1 ovarian
K-562 leukemia = system: K-562 leukemia
KM12 colon = system: KM12 colon
LOX IMVI melanoma = system: LOX IMVI melanoma
M14 melanoma = system: M14 melanoma
MALME-3M melanoma = system: MALME-3M melanoma
MCF7 breast = system: MCF7 breast
MDA-MB-231 breast = system: MDA-MB-231 breast
MDA-MB-435 = system: MDA-MB-435
MDA-MB-468 breast = system: MDA-MB-468 breast
MOLT-4 leukemia = system: MOLT-4 leukemia
NCI-H226 lung = system: NCI-H226 lung
NCI-H23 lung = system: NCI-H23 lung
NCI-H460 lung = system: NCI-H460 lung
NCI-H522 lung = system: NCI-H522 lung
NCI/ADR-RES ovarian = system: NCI/ADR-RES ovarian
OVCAR-3 ovarian = system: OVCAR-3 ovarian
OVCAR-4 ovarian = system: OVCAR-4 ovarian
OVCAR-5 ovarian = system: OVCAR-5 ovarian
OVCAR-8 ovarian = system: OVCAR-8 ovarian
PC-3 prostate = system: PC-3 prostate
RPMI-8226 leukemia = system: RPMI-8226 leukemia
RXF 393 renal = system: RXF 393 renal
SF-268 CNS = system: SF-268 CNS
SF-295 CNS = system: SF-295 CNS
SF-539 CNS = system: SF-539 CNS
SK-MEL-2 melanoma = system: SK-MEL-2 melanoma
SK-MEL-28 melanoma = system: SK-MEL-28 melanoma
SK-MEL-5 melanoma = system: SK-MEL-5 melanoma
SK-OV-3 ovarian = system: SK-OV-3 ovarian
SN12C renal = system: SN12C renal
SNB-19 CNS = system: SNB-19 CNS
SNB-75 CNS = system: SNB-75 CNS
SR leukemia = system: SR leukemia
SW-620 colon = system: SW-620 colon
T-47D breast = system: T-47D breast
TK-10 renal = system: TK-10 renal
U251 CNS = system: U251 CNS
UACC-257 melanoma = system: UACC-257 melanoma
UACC-62 melanoma = system: UACC-62 melanoma
UO-31 renal = system: UO-31 renal

## CC(C)(C)OC(=O)N1C/C(=C\c2ccc(F)cc2)C(=O)/C(=C/c2ccc(F)cc2)C1
786-0 renal
  GI50: 1.94 µM
  TGI: 3.98 µM
A498 renal
  GI50: 17.1 µM
  TGI: 34.6 µM
A549 NSCLC
  GI50: 6.72 µM
  TGI: 29 µM
ACHN renal
  GI50: 1.87 µM
  TGI: 3.68 µM
BT-549 breast
  GI50: 1.82 µM
  TGI: 3.73 µM
CAKI-1 renal
  GI50: 2.07 µM
  TGI: 5.5 µM
CCRF-CEM leukemia
  GI50: 1.81 µM
  TGI: > 100 µM
COLO 205 colon
  GI50: 3.49 µM
  TGI: 12.1 µM
DU-145 prostate
  GI50: 3.5 µM
  TGI: 13.7 µM
EKVX NSCLC
  GI50: 2.56 µM
  TGI: 6.61 µM
HCC-2998 colon
  GI50: 1.84 µM
  TGI: 3.26 µM
HCT-116 colon
  GI50: 0.355 µM
  TGI: 1.28 µM
HCT-15 colon
  GI50: 1.5 µM
  TGI: 3.22 µM
HL-60(TB) leukemia
  GI50: 2.88 µM
  TGI: > 100 µM
HOP-62 NSCLC
  GI50: 13.1 µM
  TGI: 26.9 µM
HOP-92 NSCLC
  GI50: 2.51 µM
  TGI: 9.66 µM
HS 578T breast
  GI50: 2.26 µM
  TGI: 7.68 µM
HT29 colon
  GI50: 1.91 µM
  TGI: 3.72 µM
IGROV1 ovarian
  GI50: 2.14 µM
  TGI: 4.82 µM
K-562 leukemia
  GI50: 0.643 µM
  TGI: > 100 µM
KM12 colon
  GI50: 1.89 µM
  TGI: 4.23 µM
LOX IMVI melanoma
  GI50: 1.28 µM
  TGI: 2.55 µM
M14 melanoma
  GI50: 2.02 µM
  TGI: 4.5 µM
MALME-3M melanoma
  GI50: 2.24 µM
  TGI: 5.15 µM
MCF7 breast
  GI50: 0.991 µM
  TGI: 2.46 µM
MDA-MB-231 breast
  GI50: 2.16 µM
  TGI: 5.27 µM
MDA-MB-435
  GI50: 1.73 µM
  TGI: 3.32 µM
MDA-MB-468 breast
  GI50: 1.85 µM
  TGI: 3.75 µM
MOLT-4 leukemia
  GI50: 3.5 µM
  TGI: > 100 µM
NCI-H226 lung
  GI50: 3.64 µM
  TGI: 14.8 µM
NCI-H23 lung
  GI50: 2.17 µM
  TGI: 5.3 µM
NCI-H460 lung
  GI50: 3.22 µM
  TGI: 10.7 µM
NCI-H522 lung
  GI50: 1.63 µM
  TGI: 3.17 µM
NCI/ADR-RES ovarian
  GI50: 1.89 µM
  TGI: 4.39 µM
OVCAR-3 ovarian
  GI50: 1.99 µM
  TGI: 4.46 µM
OVCAR-4 ovarian
  GI50: 3.22 µM
  TGI: 19.5 µM
OVCAR-5 ovarian
  GI50: 2.18 µM
  TGI: 5.59 µM
OVCAR-8 ovarian
  GI50: 1.83 µM
  TGI: 3.78 µM
PC-3 prostate
  GI50: 1.9 µM
  TGI: 6.41 µM
RPMI-8226 leukemia
  GI50: 0.379 µM
  TGI: 2.64 µM
RXF 393 renal
  GI50: 2.92 µM
  TGI: 8.29 µM
SF-268 CNS
  GI50: 3.02 µM
  TGI: 11.7 µM
SF-295 CNS
  GI50: 1.97 µM
  TGI: 3.98 µM
SF-539 CNS
  GI50: 1.94 µM
  TGI: 3.81 µM
SK-MEL-2 melanoma
  GI50: 2.65 µM
  TGI: 9.67 µM
SK-MEL-28 melanoma
  GI50: 2.17 µM
  TGI: 5.51 µM
SK-MEL-5 melanoma
  GI50: 1.71 µM
  TGI: 3.51 µM
SK-OV-3 ovarian
  GI50: 8.24 µM
  TGI: 21.9 µM
SN12C renal
  GI50: 1.82 µM
  TGI: 4.12 µM
SNB-19 CNS
  GI50: 2.65 µM
  TGI: 8.72 µM
SNB-75 CNS
  GI50: 2.53 µM
  TGI: 19.9 µM
SR leukemia
  GI50: 0.335 µM
  TGI: > 100 µM
SW-620 colon
  GI50: 0.455 µM
  TGI: 1.7 µM
T-47D breast
  GI50: 3.18 µM
  TGI: 15.9 µM
TK-10 renal
  GI50: 4.01 µM
  TGI: 16.4 µM
U251 CNS
  GI50: 1.44 µM
  TGI: 2.96 µM
UACC-257 melanoma
  GI50: 2.06 µM
  TGI: 5.19 µM
UACC-62 melanoma
  GI50: 1.78 µM
  TGI: 4.17 µM
UO-31 renal
  GI50: 1.77 µM
  TGI: 3.94 µM
